Measured values taken from patent US9192621B2, “Esters and malonates of SATE prodrugs” (IDENIX PHARMACEUTICALS LLC, priority 2012, dated 2015).

Legend:
[1] = Cytotoxicity evaluation, CellTiter-Blue Cell Viability Assay; assay type: cell-based; settings: human, Zluc cells (HCV replicon cells)
HCV genotype 1b replicon = test: HCV replicon assay (luciferase reporter, Zluc cells); assay type: cell-based; settings: Huh-7-derived Zluc cells, 72 hours of incubation
Zluc cells = test: Cytotoxicity evaluation, CellTiter-Blue Cell Viability Assay; assay type: cell-based; settings: read-out: HCV Replicon CC50
[2] = Stability in simulated gastric and intestinal fluids; assay type: in vitro ADME; settings: 100 μM, 2 hours at 37° C., percent of the peak area observed at time zero
Experimental: Stability in simulated gastric and intestinal fluids: Simulated gastric and intestinal fluids containing pepsin and pancreatin respectively were prepared according to the U.S. Pharmacopoeia USP291 procedure (www.pharmacopeia.cn/v29240/usp29nf24s0_ris1s126.html). Test compound (final concentration 100 μM) was incubated in duplicate in the appropriate fluid for 2 hours at 37° C. The samples were quenched with 200 μl cold acetonitrile, vortexed for 30 seconds and then centrifuged at 16,100 g for 10 min. The supernatants were analyzed by HPLC on a C-18 column with UV detection at 252 nm. The time 0 samples were prepared by adding SGF or SIF fluid to the quenching solvent followed by the test compound. Stability of the compound was determined by peak area for the test compound after incubation and calculated as percent of the peak area observed at time zero.

In the case of CCOc1nc(N)nc2c1ncn2[C@@H]1O[C@H](COP(=O)(NCc2ccccc2)OCCSC(=O)C(C)(C)COC(C)=O)[C@@H](O)[C@@]1(C)F (single isomer, unassigned) [Compound 101 Diastereomer 1], the CC50 at 72 h [1] is reported as at most 50 µM and the EC50 (HCV genotype 1b replicon; Hepatitis C virus) is reported as at most 0.25 µM.

In the case of CCOc1nc(N)nc2c1ncn2[C@@H]1O[C@H](COP(=O)(NCc2ccccc2)OCCSC(=O)C(C)(C)COC(C)=O)[C@@H](O)[C@@]1(C)F (single isomer, unassigned) [Compound 101 Diastereomer 2], the EC50 (HCV genotype 1b replicon) is reported as at most 0.25 µM.

With CCCCCC(=O)OCC(C)(C)C(=O)SCCOP(=O)(NCc1ccccc1)OC[C@H]1O[C@@H](n2cnc3c(OCC)nc(N)nc32)[C@](C)(F)[C@@H]1O (single isomer, unassigned) [Compound 103 Diastereomer 1] the CC50 at 72 h [1] was over 50 µM and the EC50 (HCV genotype 1b replicon; Hepatitis C virus) was at most 0.25 µM.

With CCCCCC(=O)OCC(C)(C)C(=O)SCCOP(=O)(NCc1ccccc1)OC[C@H]1O[C@@H](n2cnc3c(OCC)nc(N)nc32)[C@](C)(F)[C@@H]1O (single isomer, unassigned) [Compound 103 Diastereomer 2] the CC50 (Zluc cells) was over 50 µM.

Work on CCOc1nc(N)nc2c1ncn2[C@@H]1O[C@H](COP(=O)(NCc2ccccc2)OCCSC(=O)C(C)(C)C(=O)OC(C)C)[C@@H](O)[C@@]1(C)F (single isomer, unassigned) [Compound 105 Diastereomer 1] yielded a CC50 at 72 h [1] of over 50 µM and an EC50 (HCV genotype 1b replicon; Hepatitis C virus) of at most 0.25 µM.

CCOc1nc(N)nc2c1ncn2[C@@H]1O[C@H](COP(=O)(NCc2ccccc2)OCCSC(=O)C(C)(C)C(=O)OC(C)C)[C@@H](O)[C@@]1(C)F (single isomer, unassigned) [Compound 105 Diastereomer 2] showed a CC50 (Zluc cells) of over 50 µM.

CCOc1nc(N)nc2c1ncn2[C@@H]1O[C@H](COP(=O)(NCc2ccccc2)OCCSC(=O)C(C)(C)COC(C)=O)[C@@H](O)[C@@]1(C)F (stereo partly drawn) [Compound 101] gave a CC50 at 72 h [1] of at most 50 µM and an EC50 (HCV genotype 1b replicon; Hepatitis C virus) of at most 0.25 µM.

With CCCC(=O)OCC(C)(C)C(=O)SCCOP(=O)(NCc1ccccc1)OC[C@H]1O[C@@H](n2cnc3c(OCC)nc(N)nc32)[C@](C)(F)[C@@H]1O (stereo partly drawn) [Compound 102] the CC50 at 72 h [1] was at most 50 µM and the EC50 (HCV genotype 1b replicon; Hepatitis C virus) was at most 0.25 µM.

CCCCCC(=O)OCC(C)(C)C(=O)SCCOP(=O)(NCc1ccccc1)OC[C@H]1O[C@@H](n2cnc3c(OCC)nc(N)nc32)[C@](C)(F)[C@@H]1O (stereo partly drawn) [Compound 103] gave a CC50 at 72 h [1] of over 50 µM and an EC50 (HCV genotype 1b replicon; Hepatitis C virus) of at most 0.25 µM.

CCOc1nc(N)nc2c1ncn2[C@@H]1OC(COP(=O)(NCc2ccccc2)OCCSC(=O)C(C)(C)COC(=O)C(C)C)[C@@H](O)[C@@]1(C)F (stereo partly drawn) [Compound 104] gave a CC50 at 72 h [1] of at most 50 µM and an EC50 (HCV genotype 1b replicon; Hepatitis C virus) of at most 0.25 µM.

In the case of CCOc1nc(N)nc2c1ncn2[C@@H]1O[C@H](COP(=O)(NCc2ccccc2)OCCSC(=O)C(C)(C)C(=O)OC(C)C)[C@@H](O)[C@@]1(C)F (stereo partly drawn) [Compound 105], the CC50 at 72 h [1] is reported as over 50 µM and the EC50 (HCV genotype 1b replicon; Hepatitis C virus) is reported as at most 0.25 µM.

For CC(=O)OCC(C)(C)C(=O)SCCOP(=O)(NCc1ccccc1)OCC1O[C@@H](n2cnc3c(=O)[nH]c(N)nc32)[C@](C)(O)[C@@H]1O (stereo partly drawn) [Compound 106], the CC50 at 72 h [1] was at most 50 µM and the EC50 (HCV genotype 1b replicon; Hepatitis C virus) was at most 0.25 µM.

In the case of CCCC(=O)OCC(C)(C)C(=O)SCCOP(=O)(NCc1ccccc1)OCC1O[C@@H](n2cnc3c(=O)[nH]c(N)nc32)[C@](C)(O)[C@@H]1O (stereo partly drawn) [Compound 107], the CC50 at 72 h [1] is reported as at most 50 µM, the EC50 (HCV genotype 1b replicon; Hepatitis C virus) is reported as at most 0.25 µM and the “Stability SGF” value ([2]; simulated gastric fluid containing pepsin) is reported as “+++ (50<+++<100)”. For the same compound, the “Stability SIF” value ([2]; simulated intestinal fluid containing pancreatin) was “+ (+≦25)”.

With CCCCCC(=O)OCC(C)(C)C(=O)SCCOP(=O)(NCc1ccccc1)OCC1O[C@@H](n2cnc3c(=O)[nH]c(N)nc32)[C@](C)(O)[C@@H]1O (stereo partly drawn) [Compound 108] the CC50 at 72 h [1] was at most 50 µM and the EC50 (HCV genotype 1b replicon; Hepatitis C virus) was at most 0.25 µM.
